For assay [1], the system named is Human BEAS-2B bronchial epithelial cells. Briefly: BEAS-2B cold ischemia-reperfusion injury model: confluence by Incucyte imaging. The class given is cell-based. The note with it: for confluence, mean percent difference compared to standard LPD alone: immediately upon reperfusion. As to the method: (§1) Human BEAS-2B bronchial epithelial cells were cultured until subconfluence in 96-well plates with standard media (DMEM+10% FBS). […] These parameters simulated the real-life environment of standard lung preservation.
(§2) This was followed by up to 48 h of warm reperfusion at 37° C. in regular cell culture media (at 5% CO2). Regular cell media was used as negative control for the simulated cold ischemia, and regular LPD was used as positive control. Upon switching to LPD, the four different itaconate derivatives in the three different concentrations were assessed and compared to regular LPD and standard media during cold static preservation. Confluence and apoptosis measurements (based on Caspase3/7 dye) were taken by serial imaging in an Incucyte S3 Live Cell imaging device to assess the efficacy of the itaconate-containing solutions in preserving each cell culture.
(§3) Four different itaconate molecules were tested, each in three different dosages and four replicates: underivatized itaconic acid (ITA) at 5 mM, 7.5 mM, and 10 mM; pH-corrected itaconic acid (NaOH-ITA) at 5 mM, 7.5 mM, and 10 mM; dimethyl itaconate (DI) at 0.125 mM, 0.25 mM, and 0.5 mM; and 4-octyl itaconate (4OI) at 0.125 mM, 0.25 mM, and 0.5 mM. […] Upon switching to LPD, the four different itaconate molecules in the three different concentrations each were assessed and compared to regular LPD (positive control) and standard media (negative control) during cold static preservation. Four replicates for each condition were used.
FIG. 5D illustrates the cell confluence results of the in vitro phase. T=0 represents the cell confluence reached before the 18-hour period of cold ischemia described with respect to FIG. 5A. Cells were cultured until subconfluence (shown at t=4 h in FIG. 5D), followed by cold ischemia from t=4 h to t=22 h. T=22 h represents the beginning of warm reperfusion as described with respect to FIG. 5A.

Assay [2] has the same test system. Briefly: BEAS-2B cold ischemia-reperfusion injury model: cell morphology. The format is cell-based. The method, then: as §1, §2, §3
For example, FIG. 6B illustrates the cell morphology of cells exposed to i) LPD (positive control), ii) DMEM (negative control), iii) ITA 10 mM, iv) DI 0.25 mM, and v) 4OI 0.25 mM following cold ischemia. FIG. 6C illustrates the cell morphology of these groups at reperfusion at t=22 h. […] The cells cultured in DMEM (the negative control) died during cold ischemia and were washed away during reperfusion, as shown by a comparison of FIG. 6B to FIG. 6C.

In the next assay the test system is pig lungs. Briefly: Porcine ex vivo lung perfusion (EVLP) model of lung transplantation: lung physiology. The arrangement: species or system Yorkshire pigs. As to the method: (§4) Lungs were surgically harvested from Yorkshire pigs weighing 31-38 kg. The dimethyl itaconate (DI) 0.25 mM solution was selected for testing in vivo due to positive performance in vitro. The lungs were randomized to be flushed with a flush solution of Low Potassium Dextran (LPD) in two groups, with or without 0.25 mM dimethyl itaconate (DI) (n=4 pairs of lungs per group). For flushing, 2 L of flush solution were administered antegrade, and […] was administered retrograde prior to lung static preservation. Retrograde flush solution was collected in a sterile bag and used to coat the lungs during the preservation period. When appropriate (based on assigned randomization), DI was added to all 3 L of flush solution. Surgical teams were blinded to the intervention.
(§5) Still referring to FIG. 5C, lungs were subsequently preserved at 4° C. for an extended period of 36 h, then reperfused on EVLP for 6 h. EVLP allows lungs to be ventilated, reperfused to normothermia, and evaluated in an extracorporeal platform. EVLP performance was measured because it strongly correlates with post-transplant, recipient performance. Multiple physiological parameters of lung function were measured, and perfusate and tissue biopsies were collected. The measured physiological parameters included plateau airway pressure, change in partial pressure of oxygen delta PO2 (left atrium PO2—pulmonary artery PO2), static compliance, pulmonary vascular resistance (PVR), total perfusate loss, and wet to dry (W/D) ratios.
(§6) Statistical analysis was performed with GraphPad prism 9.0 (GraphPad Software, San Diego, CA). Two-way repeated measures ANOVA with Dunn's post-test based on the distribution of data and Mann-Whitney test were used for comparison between groups, when appropriate. Values are presented as mean±SEM unless stated otherwise, and p values <0.05 are considered statistically significant.

Assay [3] deals with inflammatory cytokines in both tissue and perfusate. In words: Porcine EVLP model: cytokine analysis of lung tissue and perfusate. The class given is in vivo, Yorkshire pigs. The note with it: DI 0.25 mM flush vs control. As to the method:
as §4, §5, §6

Assay [4] relates to Human bronchiole epithelial cells (BEAS2B). Briefly: Intracellular free ferrous iron (FerroOrange) after cold storage. The class given is cell-based. The conditions noted are these: LPD + 0.25 mM DI vs LPD alone; 24 h at 10° C.; p<0.001. As to the method:
This example aimed to determine whether an organ preservation solution having 0.25 mM dimethyl itaconate (DI) could have anti-ferroptotic properties. Human bronchiole epithelial cells (BEAS2B) were cultured to sub-confluence in standard culture medium (DMEM+10% fetal bovine serum) at 37° C. Upon reaching sub-confluence, the culture medium was aspirated completely, and cells were washed twice with phosphate-buffered saline (PBS) before adding cooled LPD or LPD supplemented with DI at a concentration of 0.25 mM. Cells were then placed in a 10° C. refrigeration unit for 24 hours. […] To measure intracellular iron between treatment groups after storage for 24 h at 10° C., FerroOrange, a fluorescent probe for free ferrous ions (Fe2+), was used according to the manufacturer's protocol (Dojindo Molecular Laboratories, MD, USA).
A […] FerroOrange solution was prepared in serum-free DMEM. Cells were washed with serum-free DMEM three times before being exposed to FerroOrange solution. The plate was then stored at 37° C. for 30 minutes. Fluorescence was quantified with a Cytation microplate reader (BioTek, VT, USA), with the top reading mode at an excitation wavelength of 543 nm and emission wavelength of 580 nm.

In assay [5] the test system is Human BEAS-2B bronchial epithelial cells. Briefly: BEAS-2B cold ischemia-reperfusion injury model: apoptosis (Caspase3/7 dye). The class given is cell-based. The conditions noted are these: immediately upon reperfusion, p<0.001. The method, then:
as §1
This was followed by up to 48 h of warm reperfusion at 37° C. in regular cell culture media (at 5% CO2). Regular cell media was used as negative control for the simulated cold ischemia, and regular LPD was used as positive control. Upon switching to LPD, the four different itaconate derivatives in the three different concentrations were assessed and compared to regular LPD and standard media during cold static preservation. […]
Four different itaconate molecules were tested, each in three different dosages and four replicates: underivatized itaconic acid (ITA) at 5 mM, 7.5 mM, and 10 mM; pH-corrected itaconic acid (NaOH-ITA) at 5 mM, 7.5 mM, and 10 mM; dimethyl itaconate (DI) at 0.125 mM, 0.25 mM, and 0.5 mM; and 4-octyl itaconate (4OI) at 0.125 mM, 0.25 mM, and 0.5 mM. […] Upon switching to LPD, the four different itaconate molecules in the three different concentrations each were assessed and compared to regular LPD (positive control) and standard media (negative control) during cold static preservation. […]

On to `C=C(CC(=O)OCCCCCCCC)C(=O)O` [4OI, 4-octyl itaconate], for which the “cell confluence compared to standard LPD alone or DI” value in assay [1] (4OI in LPD, 18 h cold ischemia, reperfusion) is “did not perform favorably”. Also, the cell morphology result in assay [2] (0.25 mM and 0.5 mM 4OI in LPD, 18 h cold ischemia at 4° C., reperfusion) is “morphological cell injury to a lower extent”.
On to `C=C(CC(=O)OC)C(=O)OC` [DI, dimethyl itaconate], for which the “confluence ranking among tested solutions” value in assay [1] (DI 0.125 mM) and in assay [1] (DI 0.25 mM) was “highest confluence” throughout. For the same compound, the “confluence, mean percent difference compared to standard LPD alone” value in assay [1] (DI 0.125 mM, CI 2.0-13.7, p<0.01) worked out at 7.84%; in assay [1] (DI 0.25 mM, CI 12.34-0.14, p<0.05), 6.24%. Besides, in assay [1] (after 24 h of reperfusion, p<0.001), the “confluence compared to positive control (LPD)” value is “differences remained favoring DI”. For the same compound, the cellular morphology entry in assay [2] (DI in LPD, 18 h cold ischemia at 4° C., reperfusion (FIG. 6D)) is reported as “did not indicate any signs of shrinkage, pyknosis, or karyorrhexis”. Also, in the assay with pig lungs (flush LPD with 0.25 mM DI vs LPD, 36 h at 4° C., after 6 h of perfusion), the “areas of edema on dorsal lung surface” value was “more pronounced in the control group when compared to the DI group”. The plateau airway pressures entry in the assay on pig lungs (flush LPD+DI 0.25 mM vs LPD, 36 h at 4° C., 6 h EVLP, p<0.0001) is given as “lower”. For the same compound, in the assay with pig lungs (flush LPD+DI 0.25 mM vs LPD, 36 h at 4° C., 6 h EVLP, p<0.01), the “delta PO2 (left atrium PO2—pulmonary artery PO2)” value is recorded as “higher”. Moreover, in the assay with pig lungs (flush LPD+DI 0.25 mM vs LPD, 36 h at 4° C., 6 h EVLP, p<0.05), the static compliances entry is given as “higher”. Also, the total perfusate loss result with pig lungs (flush LPD+DI 0.25 mM vs control, 6 h EVLP, not statistically significant) is on record as “trend toward reduced total perfusate loss”. In the assay on pig lungs (flush LPD+DI 0.25 mM vs control, trend, not statistically significant), the wet-to-dry ratios result is listed as “reduced wet-to-dry ratios”. The “IL-6 expression levels in the perfusate” value in assay [3] (after 6 hours, p<0.05) is on record as “significantly reduced”. The “IL-8 expression levels in the perfusate” value in assay [3] (after 6 hours, p<0.05) is given as “reduced IL-8 expression levels”. For the same compound, in assay [3] (after 6 hours, p<0.05), the “perfusate expression of TNF-α” value was “significantly reduced perfusate expression of TNF-α”. Besides, the “IL-10 expression levels in the perfusate” value in assay [3] (after 6 hours, p<0.05 (FIG. 5M)) was “reduced IL-10 expression levels”. The “tissue IL-8 expression” value in assay [3] (lung tissue, p<0.0001) was “reduced tissue IL-8 expression”. For the same compound, the “intracellular iron (FerroOrange fluorescence)” value in assay [4] is “significantly reduced amount of intracellular iron”.
For `C=C(CC(=O)O)C(=O)O` [ITA, itaconic acid], in assay [1] (ITA in LPD, over 48 hours of reperfusion at 37° C.), the confluence over reperfusion result is recorded as “stable confluence”. For the same compound, the “apoptosis counts compared to positive controls” value in assay [5] (ITA in LPD) is on record as “elevated apoptosis counts”. Further, in assay [2] (ITA in LPD (10 mM shown), 18 h cold ischemia at 4° C., 50% O2, compared to LPD), the cell morphology entry is “cell shrinkage, nuclear pyknosis (condensation), and start of karyorrhexis (fragmentation), consistent with irreversible cell injury”.
With `C=C(CC(=O)O)C(=O)O` [NaOH-ITA, itaconic acid], the “apoptosis counts compared to positive controls” value in assay [5] (higher concentrations of NaOH-ITA) is given as “elevated apoptosis counts”. In addition, the cell morphology result in assay [2] (higher concentrations of NaOH-ITA in LPD, after 18 h cold ischemia at 4° C.) is on record as “presented morphological changes”.
